Experimental data from patent US7125911B2, “Autonomic nerve regulating agent” (Kao Corporation, priority 2000, dated 2006).

Assays:
[1] = tested on: women in their twenties complaining of fatigue (sympathetic overactivity); test: Inhalation of cedrol for 30 seconds with ECG, blood pressure and respiration monitoring (Example 1); type: in vivo, human; details: after vs before inhalation, 10 wt % in dipropylene glycol, significance 5%
Method: The subjects were ten women in their twenties complaining of fatigue (sympathetic overactivity), who were asked to inhale, for 30 seconds, cedrol dissolved in dipropylene glycol (10 wt % concentration), while ECG at rest (chest V5 lead), blood pressure (tonometry), and respiration (pulmonary volume instantaneously measured by respiratory rate sensor) were monitored. The changes in parameters before and after measurement were compared. Frequency analysis of R—R interval fluctuations was performed for low frequency components integrating amplitudes 0.02 to 0.12 Hz (sum of low frequency: Lsum) and high frequency components integrating amplitudes 0.12 to 2.00 Hz (sum of high frequency: Hsum) using the rapid Fourier transform. As used here, the Hsum is an indicator of parasympathetic nervous activity, and the Lsum/Hsum is an indicator of sympathetic nervous activity.
The measurement results were statistically analyzed by Welch's t-test or Student's t-test based on the F test.

[2] = tested on: insomniac women in their twenties (parasympathetic predominance to excess); test: Inhalation of cedrol for 30 seconds with ECG, blood pressure and respiration monitoring (Example 2); type: in vivo, human; details: after vs before inhalation, insomniac subjects
Excerpt: The subjects were ten insomniac women in their twenties (under considerable pressure to get to sleep, with parasympathetic predominance to excess), who were asked to inhale, for 30 seconds, cedrol dissolved in dipropylene glycol (10 wt % concentration), while ECG at rest (chest V5 lead), blood pressure (tonometry), and respiration (pulmonary volume instantaneously measured by respiratory rate sensor), and skin blood flow of forehead (measured by laser Doppler methods) were monitored. The changes in parameters before and after measurement were compared. Frequency analysis of R—R interval fluctuations and statistical analysis of the measurement results were done in the same manner as in Example 1.

[3] = Vapor pressure of purified cedrol by static method and gas flow method; type: physicochemical; details: ambient temperature (unheated)
Method: The vapor pressure of purified cedrol (molecular weight 222 g·mol^−1) used in the following examples was determined by a static method and a gas flow method (temperature: 22, 50, and 75° C. for solids; 100 and 125° C. for liquids).
In the static method, samples were taken from hermetically sealed containers, a constant temperature was established, and the equilibrium vapor pressure at that temperature was directly measured using a pressure gauge (OECD Test Guidelines 104: Static Measurement of Vapor Pressure).
In the gas flow method, carrier gas (nitrogen gas) was allowed to flow so as to come into contact with a solid or liquid sample at a certain temperature to saturate the sample vapor, and the vapor density (vaporization quantity/volume) was measured so as to determine the vapor pressure hypothetically in accordance with ideal gas principles. The vapor density herein referred to is calculated from the sample vaporization rate (rate of loss) determined using an electrical balance, and the carrier gas flow rate determined using a flow rate gauge. However, since the sample vapor saturation is usually incomplete, the vapor density level is dependent on flow rate, so the vapor density was measured at varying flow rates for extrapolation to a zero flow rate to determine the saturated vapor density. […]

[4] = tested on: insomniac women in their fifties; test: Sleep in a room with furnishings and bedding coated with cedrol, actigram assessment (Example 7); type: in vivo, human; details: furnishings and bedding coated with cedrol 1.5 μg/cm^2, 15th to 21st days, vs control week; p<0.01
Method: The subjects were twenty insomniac women in their fifties, while sleep was assessed from 3 hours before bed until wakening for 4 weeks in a room (sleeping room) at a temperature of 23° C. and a humidity of 50%. The first week served as a control. For the last 3 weeks, the test was conducted by replacing the curtains, wall paper, flooring, pillows, sheets, and bedding with those which had been coated with cedral (1.5 μg/cm^2).
The subjects ware actigrams for 4 continuous weeks on the opposite of their leading arm to allow assessment of the sleeping efficiency and intermittent awakening. Analyzed data for the cedrol coatings were from the 15th to 21st days following application.
Statistical analysis of the measurement results was the same as in Example 5.

[5] = tested on: women in their twenties suffering from poor sleep; test: Sleep monitoring with cedrol vaporized in the room from bedtime until waking (Example 3); type: in vivo, human; details: significance 5%
Method: The subjects were ten women in their twenties suffering from poor sleep. ECG (chest V5 lead), brain waves (C3, O1 in the international 10–20 method), respiration (impedance method: abdomen and chest), superficial electromyogram (bipolar lead of left and right mentalis muscles), and ocular movement (bipolar lead without horizontally linking left and right eye-sockets) were monitored from the time the subjects went to bed until they woke in a 40 m^2 room. The cedrol was administered by placing Petri dishes filled with cedrol on 95° C. hot plates so that approximately 100 mg was vaporized per hour (about 1 ppb/hr), from the time subjects went to bed until they woke. Measurements were taken for 7 days. No administration took place on the first two days, in order to allow subjects to become acclimated to the measuring instruments and environment (control). On the third day, administration was managed without anything placed on the hot plates (placebo). After 3 days, cedrol was administered on the 7th day.
The subjects were interviewed about their condition on waking using a questionnaire based on POMS (profile of mood states) to assess mood. The changes in the parameters measured during the administration of cedrol and placebo treatment were compared.
Awakening and sleep stages were determined in accordance with international standards for determining sleep stages (Sleep Brain Wave Atlas, pp. 3–9, Ishiyaku Shuppan KK, published September, 1971, the relevant portions thereof which describe sleep analysis and standards are incorporated herein by reference). Frequency analysis of R—R interval fluctuations and statistical analysis of the measurement results were done in the same manner as in Example 1.

[6] = within physiologically normal range, significance 5%
[7] = 7th day (cedrol) vs before administration and 3rd day (placebo treatment)
[8] = cedrol approximately 100 mg vaporized per hour vs placebo treatment

vapor pressure (vaporizability) [3]: can be vaporized at ambient temperature
SMILES: C[C@@H]1CC[C@H]2C(C)(C)[C@H]3C[C@@]12CC[C@@]3(C)O [cedrol]
ECG R-R interval [1]: meaningfully longer
Hsum (parasympathetic nervous activity indicator) [1]: meaningfully greater
Lsum/Hsum (sympathetic nervous activity indicator) [1]: meaningfully lower
diastolic blood pressure (DBP) [1]: meaningfully lower
respiratory rate (RR) [1]: meaningfully lower
systolic blood pressure (SBP) [1]: meaningfully lower
ECG R-R interval [2]: no meaningful change
Hsum [2]: tended to be lower
Lsum/Hsum [2]: tended to be higher
respiratory rate (RR) [2]: no meaningful difference
diastolic blood pressure (DBP) [2, 6]: meaningfully higher
systolic blood pressure (SBP) [2, 6]: meaningfully higher
intermittent awakening [4]: meaningfully fewer
sleeping efficiency [4]: meaningfully better
POMS fatigue [5, 7]: meaningful (5%) improvement
POMS tension [5, 7]: meaningful (5%) improvement
Hsum during non-REM sleep ([5]; cedrol approximately 100 mg vaporized per hour (about 1 ppb/hr) vs placebo treatment): meaningfully increased
cumulative incidence of stages 3 and 4 of sleep [5, 8]: meaningfully greater
respiratory rate (RR) during non-REM sleep [5, 8]: meaningfully lower
